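Protocol summary: plate cells (96-well), add compound at 5 concentrations, incubate 48 h, interpolate endpoints linearly. GI50 = concentration required for 50% inhibition of growth.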 The source made the active and inactive calls. Rule as the data show it: active = GI50 up to about 1.1 µM and inactive = higher.

The text below walks through data of ChEMBL document CHEMBL1201862, “PubChem BioAssay data set” (2004).

Some test systems named below: 786-0; A498; ACHN; COLO 205; HCT-15; Hs-578T; MDA-MB-435; MOLT-4; NCI-H460; NCI/ADR-RES; SF-268; SF-539; SK-MEL-28; SK-MEL-2; SK-OV-3; SN12C; SW-620; TK-10; UO-31; CAKI-1.
Common to all, as to experiment: NCI anticancer screen, dose series, 48 h

Regarding `CCOC(=O)CC/C(=N/Nc1ccc(Cl)cc1[N+](=O)[O-])C(=O)OCC`, the GI50 in the experiment on 786-0 was > 100 µM (inactive); in the experiment with A498, 34.8 µM (inactive); with ACHN it was > 100 µM (inactive); with COLO 205, > 100 µM (inactive); with HCT-15, greater than 100 µM; in the experiment with Hs-578T, > 100 µM (inactive). Also, the GI50 with MDA-MB-435, in the experiment with MOLT-4, in the experiment with NCI-H460, in the experiment with NCI/ADR-RES, with SF-268 and in the experiment on SF-539 was > 100 µM (inactive) each time. Besides, the GI50 in the experiment on SK-MEL-28, in the experiment with SK-MEL-2, in the experiment with SK-OV-3, with SN12C, in the experiment with SW-620 and in the experiment with TK-10 was > 100 µM (inactive) each time. Also, the GI50 in the experiment on UO-31 was > 100 µM (inactive).

In the case of `S=C=NC1CCC(c2cc3ccccc3s2)(N2CCCCC2)CC1` (stereo not drawn), the GI50 is 1.78 µM (inactive) in the experiment with 786-0; 2.26 µM (inactive) with A498; 1.93 µM (inactive) in the experiment on ACHN; 1.88 µM (inactive) in the experiment with CAKI-1; 1.98 µM (inactive) in the experiment on COLO 205; 1.53 µM with HCT-15. For the same compound, the GI50 in the experiment with Hs-578T was 2.08 µM (inactive); in the experiment on MDA-MB-435, 1.62 µM (inactive); in the experiment on MOLT-4, 0.127 µM (active); in the experiment with NCI-H460, 1.87 µM (inactive); in the experiment with NCI/ADR-RES, 1.84 µM (inactive); in the experiment with SF-268 it was 2.08 µM (inactive). Also, the GI50 in the experiment with SF-539 was 1.95 µM (inactive); in the experiment on SK-MEL-28 it was 1.6 µM (inactive); with SK-OV-3 it was 2.22 µM (inactive); in the experiment on SN12C, 1.82 µM (inactive); with SW-620, 2.02 µM (inactive); in the experiment on TK-10, 2 µM (inactive). Moreover, in the experiment on UO-31, the GI50 is 2.19 µM (inactive).

Consider `CCCCCCCCCc1c(Cl)nc(Cl)nc1Cl`, for which the GI50 was 13.9 µM (inactive) in the experiment with 786-0; 19.6 µM (inactive) with A498; 19.5 µM (inactive) in the experiment with ACHN; 4.78 µM (inactive) in the experiment with CAKI-1; 19.5 µM (inactive) with COLO 205; 12.3 µM in the experiment on HCT-15. For the same compound, the GI50 in the experiment on Hs-578T was 29.2 µM (inactive); in the experiment on MDA-MB-435, 13.5 µM (inactive); in the experiment with MOLT-4, 1.96 µM (inactive); with NCI-H460, 18.2 µM (inactive); in the experiment on NCI/ADR-RES, 18.8 µM (inactive); in the experiment on SF-268, 18.7 µM (inactive). The GI50 in the experiment with SF-539 was 18.2 µM (inactive); in the experiment with SK-MEL-28, 19.4 µM (inactive); in the experiment on SK-OV-3, 20.4 µM (inactive); in the experiment on SN12C it was 12.9 µM (inactive); with SW-620 it was 10.1 µM (inactive); with TK-10, 23 µM (inactive). Also, in the experiment with UO-31, the GI50 was 18.3 µM (inactive).

Consider `O=C(Nc1cc(Cl)c(I)c(Cl)c1)C(F)(F)F`, for which the GI50 in the experiment on 786-0 was 29 µM (inactive); with A498, 22.9 µM (inactive); with ACHN, 30.3 µM (inactive); with CAKI-1 it was 19.9 µM (inactive); with COLO 205 it was 21.5 µM (inactive); in the experiment on HCT-15, 18 µM. Further, the GI50 in the experiment on Hs-578T is 22.4 µM (inactive); in the experiment with MDA-MB-435, 30.3 µM (inactive); with MOLT-4 it was 26.5 µM (inactive); with NCI-H460, 27.1 µM (inactive); in the experiment with NCI/ADR-RES it was 34.8 µM (inactive); with SF-268, 27.1 µM (inactive). For the same compound, the GI50 in the experiment with SF-539 is > 10 µM (inactive); with SK-MEL-28, 25.2 µM (inactive); in the experiment with SK-OV-3, 31 µM (inactive); in the experiment on SN12C, 35.5 µM (inactive); with SW-620, 45.3 µM (inactive); in the experiment on UO-31 it was 23.6 µM (inactive).

Take `COc1cc(OC)c2c(=O)cc(-c3ccccc3F)[nH]c2c1`: the GI50 is 47.9 µM (inactive) in the experiment with 786-0; 48.2 µM (inactive) with A498; > 100 µM (inactive) with ACHN; 61.5 µM (inactive) in the experiment on CAKI-1; 75.9 µM (inactive) with COLO 205; 28.6 µM in the experiment with HCT-15. Further, the GI50 in the experiment with Hs-578T is > 100 µM (inactive); in the experiment on MDA-MB-435 it was 8.38 µM (inactive); in the experiment on MOLT-4 it was 66.2 µM (inactive); in the experiment with NCI-H460, 37.9 µM (inactive); with NCI/ADR-RES it was 35.3 µM (inactive); in the experiment on SF-268, 39.2 µM (inactive). In addition, the GI50 in the experiment on SK-MEL-28 is > 100 µM (inactive); in the experiment on SK-MEL-2, > 100 µM (inactive); with SK-OV-3, 91.2 µM (inactive); in the experiment with SN12C, > 100 µM (inactive); with SW-620, 59.3 µM (inactive); in the experiment on TK-10 it was 39.9 µM (inactive). In addition, the GI50 in the experiment on UO-31 is 28.6 µM (inactive).

`COC(=O)C(CCSC)NC(=O)CNC(=O)CSc1nnc(COc2ccc(Cl)cc2)n1-c1ccccc1` (stereo not drawn): the GI50 in the experiment on 786-0 was 16 µM (inactive); in the experiment with A498, 29.1 µM (inactive); in the experiment with ACHN, 17 µM (inactive); with COLO 205, 18.2 µM (inactive); in the experiment on HCT-15, 18.3 µM; in the experiment with Hs-578T, 22.3 µM (inactive). Also, the GI50 is 17.9 µM (inactive) in the experiment on MDA-MB-435; 5.36 µM (inactive) in the experiment with MOLT-4; 17.5 µM (inactive) in the experiment on NCI-H460; 82.2 µM (inactive) with NCI/ADR-RES; 17.1 µM (inactive) with SF-268; 18.7 µM (inactive) with SF-539. In addition, the GI50 is 17.5 µM (inactive) in the experiment on SK-MEL-28; 15.4 µM (inactive) in the experiment on SK-MEL-2; 18.1 µM (inactive) in the experiment on SK-OV-3; 18.4 µM (inactive) with SN12C; 20.3 µM (inactive) in the experiment on SW-620; 17.6 µM (inactive) in the experiment with TK-10. The GI50 in the experiment with UO-31 was 10.4 µM (inactive).

As for `Oc1cccc(/C=N/N=c2/[nH][nH]/c(=N/N=C/c3cccc(O)c3)c3ccccc23)c1`, the GI50 is 13.7 µM (inactive) in the experiment with 786-0; 14.3 µM (inactive) in the experiment with ACHN; 29.1 µM (inactive) in the experiment with CAKI-1; 30.4 µM (inactive) in the experiment with COLO 205; 11 µM in the experiment on HCT-15; 18.7 µM (inactive) in the experiment with Hs-578T. In addition, the GI50 is 22.9 µM (inactive) in the experiment on MDA-MB-435; 0.426 µM (active) with MOLT-4; 21.4 µM (inactive) in the experiment on NCI-H460; 22.2 µM (inactive) in the experiment on NCI/ADR-RES; 26.6 µM (inactive) in the experiment on SF-268; 16.9 µM (inactive) in the experiment on SF-539. For the same compound, the GI50 in the experiment on SK-MEL-28 is 21.8 µM (inactive); in the experiment on SK-MEL-2, 22.6 µM (inactive); in the experiment with SK-OV-3 it was 29.3 µM (inactive); in the experiment with SN12C, 11.6 µM (inactive); in the experiment with SW-620, 14.6 µM (inactive); in the experiment with TK-10, 22.1 µM (inactive). Moreover, the GI50 in the experiment on UO-31 is 15 µM (inactive).

With `Cc1cc(=O)oc2c(CNC(CO)C(=O)O)c(O)ccc12` (stereo not drawn), the GI50 in the experiment with 786-0 was > 100 µM (inactive); in the experiment on ACHN, > 100 µM (inactive); with CAKI-1 it was > 100 µM (inactive); in the experiment on COLO 205, > 100 µM (inactive); in the experiment with HCT-15, greater than 100 µM; with Hs-578T, > 100 µM (inactive). For the same compound, the GI50 in the experiment with MDA-MB-435, with MOLT-4, in the experiment on NCI-H460, in the experiment on NCI/ADR-RES, with SF-268 and in the experiment on SF-539 was > 100 µM (inactive) throughout. For the same compound, the GI50 with SK-MEL-28 is > 100 µM (inactive); in the experiment on SK-MEL-2, > 100 µM (inactive); in the experiment with SK-OV-3, > 100 µM (inactive); in the experiment on SN12C, > 100 µM (inactive); in the experiment with SW-620 it was > 100 µM (inactive); in the experiment on TK-10 it was 80.9 µM (inactive). Further, in the experiment with UO-31, the GI50 is 73.1 µM (inactive).

Turning to `CC(=O)NC(=N/N=C1/C(=O)Nc2ccc(C)cc21)NC(C)=O`, the GI50 in the experiment with 786-0 is > 100 µM (inactive); in the experiment with A498, > 100 µM (inactive); in the experiment with ACHN, > 100 µM (inactive); in the experiment on CAKI-1 it was > 100 µM (inactive); with COLO 205, > 100 µM (inactive); in the experiment on HCT-15, greater than 100 µM. Further, the GI50 in the experiment with Hs-578T, with MDA-MB-435, in the experiment on MOLT-4, in the experiment with NCI-H460, with NCI/ADR-RES and in the experiment on SF-268 was > 100 µM (inactive) each time. Also, the GI50 in the experiment on SK-MEL-28, in the experiment on SK-MEL-2, in the experiment with SK-OV-3, in the experiment on SN12C, with SW-620 and with TK-10 was > 100 µM (inactive) each time. Besides, in the experiment with UO-31, the GI50 was 84.1 µM (inactive).

On to `CN(C)c1ccc(-c2nc(-c3cc4c(ccc5ccccc54)oc3=O)cs2)cc1`, for which the GI50 with 786-0 is > 100 µM (inactive); with ACHN, > 100 µM (inactive); with CAKI-1 it was > 100 µM (inactive); in the experiment with COLO 205 it was > 100 µM (inactive); with HCT-15 it was greater than 100 µM; in the experiment on Hs-578T it was > 100 µM (inactive). The GI50 in the experiment with MDA-MB-435, in the experiment on MOLT-4, in the experiment on NCI-H460, in the experiment with NCI/ADR-RES, in the experiment on SF-268 and in the experiment on SF-539 was > 100 µM (inactive) throughout. Further, the GI50 in the experiment with SK-MEL-28, in the experiment with SK-MEL-2, with SK-OV-3, with SN12C, in the experiment with SW-620 and in the experiment with TK-10 was > 100 µM (inactive) in each case. Also, the GI50 in the experiment with UO-31 was > 100 µM (inactive).

`COC(=O)[C@H](Cc1c[nH]c2ccccc12)NC(=O)c1ccc(CNC(=O)/C=C/c2cccc(Oc3ccccc3)c2)cc1`: the GI50 in the experiment on 786-0 was > 100 µM (inactive); in the experiment with A498, > 100 µM (inactive); in the experiment with ACHN it was > 100 µM (inactive); in the experiment with CAKI-1, > 100 µM (inactive); in the experiment with COLO 205, > 100 µM (inactive); in the experiment with HCT-15 it was 81.7 µM. Besides, the GI50 in the experiment on Hs-578T was 34.7 µM (inactive); in the experiment with MDA-MB-435, 5.7 µM (inactive); with MOLT-4 it was 9.06 µM (inactive); in the experiment on NCI-H460, 83 µM (inactive); with NCI/ADR-RES, > 100 µM (inactive); in the experiment with SF-268, > 100 µM (inactive). For the same compound, the GI50 is 29.2 µM (inactive) in the experiment on SK-MEL-28; 18.9 µM (inactive) with SK-MEL-2; > 100 µM (inactive) with SK-OV-3; > 100 µM (inactive) with SN12C; > 100 µM (inactive) with SW-620; > 100 µM (inactive) in the experiment with TK-10. In addition, the GI50 with UO-31 was > 100 µM (inactive).
